The data set is described as follows: physchem. The following applies: octan-1-ol/water, pH 7.4, LogD7.4.
Usually logD stands for the decadic logarithm of the distribution of all forms, ionised or not, between an organic phase and buffer at a given pH. Take `Cc1ccc(Cl)c(Nc2cc(Nc3ccc(OCC(O)CN(C)C)cc3)ncn2)c1` (stereo not drawn): the pH-dependent lipophilicity (logD) amounted to 2.16.
The figure for `CN(C)CC(O)COc1ccc(Nc2cc(N(CC#N)c3cc(Cl)ccc3Cl)ncn2)cc1` (stereo not drawn) is 2.1.
The value for `Cc1ccc(F)c(Nc2ccnc(Nc3ccc(OCC(O)CN(C)C)cc3)n2)c1` (stereo not drawn) was 2.1.
`CC(=O)NC1CC(C)N(C(=O)c2ccccc2)c2ccccc21` (stereo not drawn) showed a logD of 2.
Molecule `CC(C)C(NC(=O)Cn1c(-c2cccs2)ncc(NC(=O)OCc2ccccc2)c1=O)C(=O)C(F)(F)F` (stereo not drawn) returned a logD of 2.02.
`CC(C)C(NC(=O)Cn1c(-c2cccnc2)ncc(NC(=O)OCc2ccccc2)c1=O)C(=O)C(F)(F)F` (stereo not drawn) returned a logD of 2.15.
Turning to `CC(C)C(NC(=O)Cn1c(-c2ccc(F)cc2)ncc(NC(=O)OCc2ccncc2)c1=O)C(=O)C(F)(F)F` (stereo not drawn), the logD is 2.22.
Turning to `CC(C)C(NC(=O)Cn1c(-c2ccccc2)ccc(NC(=O)NCc2ccccn2)c1=O)C(=O)C(F)(F)F` (stereo not drawn), the log distribution coefficient (logD) was 2.15.
The value for `CC(C)C(NC(=O)Cn1c(-c2ccccc2)ncc(NC(=O)OCc2ccccc2)c1=O)C(=O)C(F)(F)F` (stereo not drawn) was 2.12; that for `O=S(=O)(NCC(c1ccccc1)N1CCCCCC1)c1cccnc1` (stereo not drawn) was 2.1.
As to `Cc1cc2n[nH]c(=O)n2c2cc(-c3ccco3)ccc12`, the pH-dependent lipophilicity (logD) was 2.07.
`CCCCCCCN(CCc1ccc(OC(C)(C)C(=O)O)cc1)C(=O)Nc1ccc(F)cc1F`: the pH-dependent lipophilicity (logD) was 1.93.
Consider `O=C(OCCN1CCCCC1)c1c[nH]c2ccccc12`, for which the log distribution coefficient (logD) was 2.
`Cc1ccc2[nH]c(C(=O)N3CCN(C)CC3)cc2c1` showed a logD of 2.22.
For the molecule `NC(=O)c1cnc(N[C@H]2CCCNC2)c2cc(-c3ccc(F)c(F)c3)sc12`, the log distribution coefficient (logD) was 2.17.
Regarding `CNC(=O)C1(N2CCCNC2=O)CCN(CC[C@H](CN(C)C(=O)c2c(OC)c(C#N)cc3ccccc23)c2ccc(Cl)c(Cl)c2)CC1`, the log distribution coefficient (logD) turned out to be 2.2.
As for `Cc1ccc(-n2[nH]c(=O)c3cccnc32)cc1`, the log distribution coefficient (logD) came out at 2.1.
As to `O=CN1CC=C(c2c(F)cc(N3C[C@H](COc4ccon4)OC3=O)cc2F)CC1`, the logD is 2.01.
`Cc1nc2nc(NC(=O)c3ccc(F)cc3)nn2c(O)c1Cc1ccccc1` displayed a logD of 2.2.
The value for `CC(O)(C(=O)Nc1ccc(S(=O)(=O)c2cccnc2)cc1)C(F)(F)F` (stereo not drawn) was 2.08.
In turn, `Cc1cc2[nH]c(=O)c(O)cc(=O)c2cc1C` had a logD of 1.99.
`Cc1ccccc1C(=O)N1CCN(c2ccccn2)CC1` displayed a logD of 2.18.
Consider `CC(C)C(NC(=O)Cn1c(-c2ccccc2)ccc(NC(=O)CN2CCOCC2)c1=O)C(=O)C(F)(F)F` (stereo not drawn), for which the logD came to 2.
`COc1cc(O)cc2occ(-c3ccc(O)cc3)c(=O)c12`: the log distribution coefficient (logD) is 2.
The value for `Cc1nc(N)c2nc(O)n(Cc3ccccc3)c2n1` was 2.04.
The figure for `O=c1c2ccccc2nc2ccccn12` is 2.1; for `FC(F)c1nc2ccccc2[nH]1` it is 2.02.
Consider `Nc1ccc(Cl)c(-c2nc3ncccc3o2)c1`, for which the pH-dependent lipophilicity (logD) was 1.97.
Take `Cc1ccc(S(=O)(=O)N2CCN(C(=O)c3ccco3)CC2)cc1`: the log distribution coefficient (logD) worked out at 2.17.
`CC1(C(=O)NC2CCCCC2)CCC(=O)N1Cc1cccs1` (stereo not drawn): the pH-dependent lipophilicity (logD) amounted to 2.15.
Molecule `Cc1ccc2c(N)c(C#N)sc2n1` gave a log distribution coefficient (logD) of 2.23.
`Cc1cc(Nc2ccc(F)cc2)nc(N)n1` had a logD of 2.08.
In turn, `COc1cccc2[nH]ncc12` showed a logD of 2.1.
Consider `CCCNC(=O)c1nnc2c(-c3ncccn3)c(F)ccc2c1N`, for which the logD was 2.07.
Take `CCCc1c(OCc2ccc(C(=O)O)cc2)ccc(C(C)=O)c1O`: the logD is 2.1.
The value for `CC[C@H](NC(=O)c1c([S+](C)[O-])c(-c2ccccc2)nc2ccccc12)c1cccnc1` (stereo partly drawn) was 2.2; that for `CCOc1cc2nnc(C(N)=O)c(Nc3cccc(Cl)c3F)c2cc1N1CCN(C)CC1` was 1.99.
The value for `COc1cc2c(Nc3c(Cl)ccc4c3OCO4)ncnc2cc1OCCCN1CCCCC1` was 2.05; that for `Cc1cccc(NC(=O)NCC(c2cccnc2)N2CCOCC2)c1` (stereo not drawn) was 2.
`Oc1ncnc2onc(-c3ccc(F)cc3)c12` displayed a log distribution coefficient (logD) of 1.97.
On to `Cc1ccc(CO)cc1N(C)c1ccnc(Nc2cc(C(=O)N3CCOCC3)cc(N3CCOCC3)c2)n1`, for which the logD stood at 2.2.
The value for `COc1cc(F)ccc1-c1cncc(CNC2CCC2)n1` was 2.23; that for `COc1cc(F)ccc1-c1cncc(CNC[C@@H]2CCCO2)n1` was 2; that for `COc1cc(F)ccc1-c1cccc(CNC2CCCC2)n1` was 2.06.
The value for `Cc1noc(C)c1CCC1CCN(S(=O)(=O)CC2(N(O)C=O)CCC(F)(F)CC2)CC1` was 2.1; that for `CCC(c1nc2ccsc2c(=O)n1Cc1ccc(OC)cc1)N(CCCN)C(=O)c1ccc(C)cc1` (stereo not drawn) was 2.15; that for `CCC(c1nc2sccc2c(=O)n1Cc1ccccc1)N(CCCN)C(=O)c1ccc(C)cc1` (stereo not drawn) was 2.06.
`NC(=O)Nc1cc(-c2cccc(O)c2)sc1C(N)=O` returned a logD of 2.21.
In turn, `Cc1ccc(/C=C(\C#N)C(N)=O)cc1` came in with a logD of 2.09.
Consider `NC(=O)c1sc(-c2ccsc2)cc1N`, for which the logD worked out at 2.23.
For the molecule `CN[C@@H](C)C(=O)N[C@H](C(=O)N[C@H]1CCCN(CCc2ccc(C)cc2)C1)C(C)(C)C`, the pH-dependent lipophilicity (logD) was 2.05.
The molecule `O=c1[nH]nc2cc(CO)c3ccc(-c4ccc[nH]4)cc3n12` yielded a log distribution coefficient (logD) of 2.19.
In turn, `CN1CCCC(CN2CCN(C(=O)Nc3ccc(Cl)c(Cl)c3)CC2)C1` (stereo not drawn) registered a pH-dependent lipophilicity (logD) of 1.98.
`CCN1CCC[C@@H](CN2CCN(C(=O)Nc3ccc(Cl)c(Cl)c3)CC2)C1`: the logD amounted to 1.94.
Molecule `CCN1CCOC(C(=O)N2CCN(C(=O)Nc3ccc(Cl)c(Cl)c3)CC2)C1` (stereo not drawn) registered a logD of 2.1.
As for `CC(C)Cn1c(=O)n(C)c(=O)c2c(C(=O)N3CC[C@@H](O)C3)c(Cc3cccc4ncccc34)sc21`, the logD was determined as 1.98.
In turn, `NC(=O)Nc1sc(-c2cc(F)cc(F)c2)cc1C(=O)N[C@H]1CCCNC1` came in with a pH-dependent lipophilicity (logD) of 2.18.
In turn, `CCN(CCO)CCCOc1cc2ncnc(Nc3cc(CC(=O)Nc4cccc(F)c4)[nH]n3)c2cc1OC` registered a logD of 2.12.
`CCCSc1ncccc1C(=O)N1CCCC1c1ccncc1` (stereo not drawn) gave a logD of 1.95.
`COc1cc(N2CCCN(C)CC2)c2[nH]c(C(=O)Nc3ccc(N4CCOCC4)cc3)cc(=O)c2c1` came in with a log distribution coefficient (logD) of 2.1.
The figure for `CC(c1cc2ccccc2o1)n1[nH]c(=O)c2[nH]c3cc(Cl)ccc3c(=O)c2c1=O` (stereo not drawn) is 2.1; for `Cn1ccc2c(-c3nc(CS(C)(=O)=O)cc(N4CCOCC4)n3)cccc21` it is 2; for `NC(=O)C(NC(=O)C1(N)CCN(c2ncnc3[nH]ccc23)CC1)c1ccc(Cl)cc1` (stereo not drawn) it is 2.2.
`NC1(C(=O)NC(CS(N)(=O)=O)c2ccc(Cl)cc2)CCN(c2ncnc3[nH]ccc23)CC1` (stereo not drawn) registered a logD of 2.2.
The figure for `CS(=O)(=O)NCC(NC(=O)C1(N)CCN(c2ncnc3[nH]ccc23)CC1)c1ccc(Cl)cc1` (stereo not drawn) is 2.1; for `CS(=O)(=O)NCCC(NC(=O)C1(N)CCN(c2ncnc3[nH]ccc23)CC1)c1ccc(Cl)cc1` (stereo not drawn) it is 2.2.
Take `CC(NC(=O)C1(N)CCN(c2ncnc3[nH]ccc23)CC1)c1ccccc1` (stereo not drawn): the pH-dependent lipophilicity (logD) came to 2.17.
As for `C1=CCC(c2cc3ccccc3o2)CNC1` (stereo not drawn), the logD is 1.94.
With `Cc1cc(-c2ccc(N3C[C@H](Cn4ccnn4)OC3=O)cc2F)on1`, the log distribution coefficient (logD) was 1.99.
Turning to `COc1cc2ncnc(Nc3ccncc3)c2cc1OC`, the pH-dependent lipophilicity (logD) was 2.22.
Turning to `C[C@@H](NC(=O)[C@H]1CCCCN1)c1ccc(Nc2ncc3cc(-c4ccncc4)ccc3n2)cc1`, the logD came to 2.15.
In the case of `Cn1c(N)nc(CCc2ccccc2)cc1=O`, the pH-dependent lipophilicity (logD) turned out to be 2.
`Cn1c(N)nc(CCc2ccc3cc[nH]c3c2)cc1=O`: the logD amounted to 2.1.
The molecule `CN1C(=O)CC(C)(CCc2cccc(-c3ccccc3)c2)N=C1N` (stereo not drawn) had a logD of 2.03.
The figure for `Cc1cc(O)ccc1N1C(=O)c2ccc(O)cc2C1=O` is 2; for `CC[S+]([O-])c1ncccc1C1(O)CCN(CC23CC(c4ccccc42)c2ccccc23)CC1` (stereo not drawn) it is 2; for `CC(C)C(NC(=O)Cn1c(-c2ccccc2)ccc(NC(=O)NCc2ccncc2)c1=O)C(=O)C(F)(F)F` (stereo not drawn) it is 2.16.
`C[C@@](O)(C(=O)Nc1ccc(S(=O)(=O)NCCCO)cc1Cl)C(F)(F)F` showed a logD of 2.1.
`CN(C)CC(O)COc1ccc(Nc2cc(N(CCC#N)c3cc(Cl)ccc3Cl)ncn2)cc1` (stereo not drawn) displayed a pH-dependent lipophilicity (logD) of 2.1.
In the case of `O=C(Nc1ccccn1)c1ccccc1`, the pH-dependent lipophilicity (logD) was determined as 2.2.
The figure for `CC(C)Cn1c(=O)n(C)c(=O)c2c(C(=O)N3C[C@H](O)CO3)c(Cc3c[nH]c4ncccc34)sc21` is 2.04; for `O=C1c2ccc(O)cc2C(=O)N1c1cccc(O)c1` it is 2; for `O=C1c2ccccc2C(=O)N1c1ccc(O)cc1` it is 2.
Consider `CN1Cc2c(N)cccc2[C@@H](c2ccccc2)C1`, for which the pH-dependent lipophilicity (logD) worked out at 2.11.
On to `Nc1ccc2c(c1)C(=O)C(=O)c1ccccc1-2`, for which the logD came out at 2.23.
For `NC(N)=Nc1cc(Cl)nc(-c2ccccc2)n1`, the logD stood at 2.16.
Molecule `CN1CCN(C(=O)c2cc3cc(F)ccc3[nH]2)CC1` had a log distribution coefficient (logD) of 1.97.
In the case of `O=C1c2ccc(O)cc2C(=O)N1c1ccc(O)cc1F`, the logD turned out to be 2.1.
For `Cc1ncc(-c2ccnc(Nc3ccc(C(=O)NCCN(C)C)c(F)c3)n2)n1C(C)C`, the logD worked out at 1.96.
Molecule `Cc1ncc(-c2nc(Nc3ccc(C(=O)N4CCCN(C)CC4)cc3)ncc2F)n1C(C)C` came in with a logD of 2.02.
For the molecule `Nc1cc(-c2ccccc2)nc2ccccc12`, the pH-dependent lipophilicity (logD) was found to be 2.2.
`Cc1ncc(-c2nc(Nc3ccc(C(=O)NC4CCN(C)CC4)cc3)ncc2F)n1C(C)C` returned a logD of 2.13.
Molecule `Cn1cc(-c2ccc(O)cc2)c(=O)c2c(O)cc(O)cc21` came in with a logD of 2.2.
Turning to `CN1CCN(C(=O)c2cc(-c3ccccc3)sc2NC(N)=O)CC1`, the log distribution coefficient (logD) is 2.17.
The molecule `O=C1/C(=N\O)c2ccccc2N1Cc1ccccc1[N+](=O)[O-]` registered a logD of 2.07.
The molecule `COc1cc(OC)cc(-c2cc3cnc(N)nc3nc2N)c1` gave a logD of 2.14.
`C[C@@](O)(C(=O)Nc1ccc(S(=O)(=O)NCCN2CCOCC2)cc1Cl)C(F)(F)F` gave a logD of 2.14.
The figure for `CC(O)(C(=O)Nc1ccc(S(=O)(=O)c2ccncc2)cc1)C(F)(F)F` (stereo not drawn) is 2.15.

The values are drawn from ChEMBL document CHEMBL3301361, “Experimental in vitro DMPK and physicochemical data on a set of publicly disclosed compounds”.
